Measurements published in PMC8634379, “From the Design to the In Vivo Evaluation of Benzohomoadamantane-Derived Soluble Epoxide Hydrolase Inhibitors for the Treatment of Acute Pancreatitis” (Journal of Medicinal Chemistry, 2021).
Values after ≈ are worked out from the molar mass of the structure shown.

Legend:
[1] = Solubility in 1% DMSO: 99% PBS (nephelometry); type: physicochemical; details: PBS with 1% DMSO, 1% DMSO: 99% PBS buffer solution, 37 °C
Method: A 10 mM stock solution of the compound was serially diluted in 100% DMSO and 1 μL of this solution was added to a 384-well UV-transparent plate (Greiner) containing 99 μL of PBS. The plate was incubated at 37 °C for 2 h and the light scattering was measured in a Nephelostar Plus reader (BMG LABTECH). The data were fitted to a segmented linear regression for measuring the compound solubility.

Microsomal stability [2] = type: in vitro ADME, mice; details: after 60 min incubation, NADP, 37 °C
Method: (§1) The human, rat, and mice recombinant microsomes employed were purchased from Tebu–Xenotech. […] Samples (75 μL) were taken from each well at 0, 10, 20, 40, and 60 min and transferred to a plate containing 4 °C 75 μL of acetonitrile and 30 μL of 0.5% formic acid in water were added for improving the chromatographic conditions. The plate was centrifuged ([…], 30 min) and supernatants were taken and analyzed by an ultraperformance liquid chromatograph–tandem mass spectrometer (Xevo-TQD, Waters) by employing a BEH C18 column and an isocratic gradient of 0.1% formic acid in water: 0.1% formic acid acetonitrile (60:40). The metabolic stability of the compounds was calculated from the logarithm of the remaining compounds at each of the time points studied.

human LOX-5 (hLOX-5) = biological target: T1, human LOX-5 (hLOX-5) (Homo sapiens, UniProt P09917); assay: Inhibition of hLOX-5; type: biochemical
T1 construct: purchased Cayman Chemical
T1 sequence (P09917 1-674): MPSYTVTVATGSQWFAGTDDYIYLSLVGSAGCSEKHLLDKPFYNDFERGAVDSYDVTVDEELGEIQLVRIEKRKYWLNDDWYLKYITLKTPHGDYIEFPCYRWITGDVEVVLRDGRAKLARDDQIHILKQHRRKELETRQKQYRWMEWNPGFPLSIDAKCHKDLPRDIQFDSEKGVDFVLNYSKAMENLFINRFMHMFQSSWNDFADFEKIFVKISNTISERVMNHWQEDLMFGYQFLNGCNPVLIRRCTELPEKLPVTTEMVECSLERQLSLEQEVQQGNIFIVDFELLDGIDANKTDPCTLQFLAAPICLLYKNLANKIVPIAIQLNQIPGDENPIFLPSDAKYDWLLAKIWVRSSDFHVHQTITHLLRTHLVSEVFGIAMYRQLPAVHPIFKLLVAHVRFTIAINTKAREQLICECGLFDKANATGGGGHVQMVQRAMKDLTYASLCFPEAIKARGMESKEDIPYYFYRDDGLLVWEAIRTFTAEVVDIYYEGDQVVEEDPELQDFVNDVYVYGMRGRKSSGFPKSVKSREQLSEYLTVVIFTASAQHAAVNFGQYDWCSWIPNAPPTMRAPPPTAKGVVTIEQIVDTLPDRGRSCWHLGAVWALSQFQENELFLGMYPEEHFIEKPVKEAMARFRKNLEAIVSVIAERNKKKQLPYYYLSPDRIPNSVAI
Method: AA and 2′,7′-dichlorodihydrofluorescein diacetate (H2DCFDA) were obtained from Sigma. Human recombinant LOX-5 was purchased from Cayman Chemical. For the determination of hLOX-5 activity, the method described by Pufahl et al. was followed.[51] The assay solution consisted of 50 mM Tris (pH 7.5), 2 mM EDTA, 2 mM CaCl2, 3 μM AA, 10 μM ATP, 10 μM H2DCFDA, and 100 mU/well hLOX-5. For the enzyme inhibition studies, the compounds to be tested were added to the assay solution prior to AA and ATP and were preincubated for a period of 10 min at room temperature, after which AA and ATP were added. The enzymatic reaction was carried out for 20 min and terminated by the addition of 40 μL of acetonitrile.

Microsomal stability [3] = details: after 60 min incubation, NADP, 37 °C
Method: as §1

human COX-2 (hCOX-2) = biological target: T2, human COX-2 (hCOX-2) (Homo sapiens, UniProt P35354); assay: Inhibition of hCOX-2 (Eurofins, catalogue reference 4186); type: biochemical; details: for IC50: performed by Eurofins
T2 sequence (P35354 18-604): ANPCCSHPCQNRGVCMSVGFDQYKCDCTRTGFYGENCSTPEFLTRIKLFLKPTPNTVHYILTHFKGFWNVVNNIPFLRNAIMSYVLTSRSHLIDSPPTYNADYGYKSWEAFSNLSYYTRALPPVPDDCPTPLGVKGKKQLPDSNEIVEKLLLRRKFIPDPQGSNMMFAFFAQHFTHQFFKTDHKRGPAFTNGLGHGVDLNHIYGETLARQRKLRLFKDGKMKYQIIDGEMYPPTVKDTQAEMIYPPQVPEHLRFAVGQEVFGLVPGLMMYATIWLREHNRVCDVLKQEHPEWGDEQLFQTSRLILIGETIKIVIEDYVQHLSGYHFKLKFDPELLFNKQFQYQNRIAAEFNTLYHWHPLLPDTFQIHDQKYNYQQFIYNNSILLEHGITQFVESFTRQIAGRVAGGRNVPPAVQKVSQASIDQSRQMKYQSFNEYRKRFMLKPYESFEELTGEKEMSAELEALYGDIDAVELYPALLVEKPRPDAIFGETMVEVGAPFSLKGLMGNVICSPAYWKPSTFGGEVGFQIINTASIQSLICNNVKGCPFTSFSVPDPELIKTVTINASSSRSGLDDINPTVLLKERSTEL

Microsomal stability [4] = type: in vitro ADME, human; details: after 60 min incubation, NADP, 37 °C
Method: as §1

SH-SY5Y cells = assay: Cytotoxicity by propidium iodide staining; type: cell-based; details: 100 μM, 24 h
Method: Cytotoxicity was evaluated in the human neuroblastoma SH-SY5Y cell line (ATCC number: CRL-2266). Cells were cultured in minimum essential medium/Ham’s-F12 (1:1, v/v) medium, supplemented with non-essential amino acids, 10% fetal bovine serum, 1 mM glutamine, and 50 μg/mL gentamycin (all reagents from Gibco, Invitrogen). For experiments, the cells were seeded at 3 × 10^5 cells/mL (100 μL/well) in 96-well plates (Nunc). After 24 h, the testing compounds were added concentrated to triplicate wells to obtain the final different concentrations up to 100 μM. Compounds were incubated for further 24 h. At termination, cytotoxicity was analyzed by the propidium iodide (PI) fluorescence stain assay. All compounds were tested in three independent experiments using different cell passages. The PI assay measures cell death. […]. The percentage of cell death induced by the treatments was calculated from the fluorescence of treated cells (Ft) relative to that of control cells (Fmin) and cells incubated with Triton X100 (Fmax) as the 0 and 100% cell death, respectively [% = ((Ft – Fmin)/(Fmax – Fmin)) × 100].

solubility at 2 h [1] | microsomal stability, percentage of remaining compound (mice) (Microsomal stability [2]) | IC50 (human LOX-5 (hLOX-5)) | microsomal stability, percentage of remaining compound (rat) (Microsomal stability [3]) | IC50 (human COX-2 (hCOX-2)) | microsomal stability, percentage of remaining compound (human) (Microsomal stability [4]) | SMILES | cytotoxicity at the highest concentration tested (SH-SY5Y cells) | inhibition of hLOX-5 (selectivity) (human LOX-5 (hLOX-5)) | inhibition of hCOX-2 (selectivity) (human COX-2 (hCOX-2))
4 µM (≈ 1.95 µg/mL) | 10% | > 100 µM | 2% | > 10 µM | 70% | CC12CC3CC(NC(=O)N[C@H]4CC[C@H](Oc5ccc(C(=O)O)cc5)CC4)(CC(C1)c1ccccc13)C2 [Compound 20, 4-[((1r,4r)-4-(3-(9-Methyl-5,6,8,9,10,11-Hexahydro-7H-5,9:7,11-dimethanobenzo[9]annulen-7-yl)ureido)cyclohexyl)oxy]benzoic Acid] | None of the compounds showed to be cytotoxic | Neither 20 nor the halogenated analogues 22 and 23 significantly inhibited | Neither 20 nor the halogenated analogues 22 and 23 significantly inhibited
7 µM (≈ 3.45 µg/mL) | 36% | > 100 µM | 60% | > 10 µM | 77% | O=C(NC12CC3CC(F)(CC(C1)c1ccccc13)C2)N[C@H]1CC[C@H](Oc2ccc(C(=O)O)cc2)CC1 [Compound 23, 4-[((1r,4r)-4-(3-(9-Fluoro-5,6,8,9,10,11-hexahydro-7H-5,9:7,11-dimethanobenzo[9]annulen-7-yl)ureido)cyclohexyl)oxy]benzoic Acid] | None of the compounds showed to be cytotoxic | Neither 20 nor the halogenated analogues 22 and 23 significantly inhibited | Neither 20 nor the halogenated analogues 22 and 23 significantly inhibited

SMILES | solubility at 2 h [1] | microsomal stability, percentage of remaining compound (mice) (Microsomal stability [2]) | IC50 (human LOX-5 (hLOX-5)) | microsomal stability, percentage of remaining compound (rat) (Microsomal stability [3]) | IC50 (human COX-2 (hCOX-2)) | microsomal stability, percentage of remaining compound (human) (Microsomal stability [4]) | cytotoxicity at the highest concentration tested (SH-SY5Y cells) | inhibition of hLOX-5 (selectivity) (human LOX-5 (hLOX-5)) | inhibition of hCOX-2 (selectivity) (human COX-2 (hCOX-2))
O=C(NC12CC3CC(Cl)(CC(C1)c1ccccc13)C2)N[C@H]1CC[C@H](Oc2ccc(C(=O)O)cc2)CC1 [Compound 22, 4-[((1r,4r)-4-(3-(9-Chloro-5,6,8,9,10,11-hexahydro-7H-5,9:7,11-dimethanobenzo[9]annulen-7-yl)ureido)cyclohexyl)oxy]benzoic Acid] | 13 µM (≈ 6.62 µg/mL) | 29% | > 100 µM | 52% | > 10 µM | 89% | None of the compounds showed to be cytotoxic |  | 
